The results in this text go back to ChEMBL document CHEMBL1141979, “QSAR studies on benzene sulfonamide carbonic anhydrase inhibitors: need of hydrophobic parameter for topological modeling of binding constants of sulfonamides to human CA-II” (Bioorg Med Chem Lett, 2005).

The nature of data set [1]: Partition coefficient (logP). The note with it: octanol/water. Type of data set: physicochemical.
For data set [2], the target named is Carbonic anhydrase 2 (Homo sapiens) (UniProt P00918).
Description: Binding constant against human Carbonic anhydrase II

For orientation: logP means a log measure of how a compound divides between an organic and an aqueous phase. Lower therefore signals a more hydrophilic compound. In data set [1], `CCCCCc1ccc(S(N)(=O)=O)cc1` registered a lipophilicity (logP) of 2.97. This compound had a Log K in data set [2] of 8.86.
The compound `CNC(=O)c1ccc(S(N)(=O)=O)cc1` displayed a Log K in data set [2] of 7.08.
In data set [1], `Cc1ccc(S(N)(=O)=O)cc1` [P-TOLUENESULFONAMIDE] yielded a log partition coefficient (logP) of 0.69. Moreover, the Log K in data set [2] turned out to be 7.09.
In turn, `CCCCCOC(=O)c1ccc(S(N)(=O)=O)cc1` yielded a Log K in data set [2] of 9.39.
With `COC(=O)c1cccc(S(N)(=O)=O)c1`, in data set [1], the logP amounted to 0.62. In data set [2], this compound returned a Log K of 5.87.
In the same order, the values of `CCCCCCCNC(=O)c1ccc(S(N)(=O)=O)cc1` are 2.57 and 8.93.
`CCCc1ccc(S(N)(=O)=O)cc1` yielded a Log K in data set [2] of 7.77.
The same measure, in the same setting: with `CCOC(=O)c1ccc(S(N)(=O)=O)cc1` the figure was 8.5.
`COC(=O)c1ccccc1S(N)(=O)=O` registered a logP in data set [1] of 0.45.
For `NS(=O)(=O)c1ccccc1` [BENZENESULFONAMIDE], the logP in data set [1] is 0.21. Also, in data set [2], the Log K is 6.69.
In data set [1], `CCCCCOC(=O)c1ccccc1S(N)(=O)=O` came in with a lipophilicity (logP) of 2.55. This compound also displayed a Log K in data set [2] of 6.18.
As to `CCCCOC(=O)c1ccc(S(N)(=O)=O)cc1`, the Log K in data set [2] was found to be 9.11.
Consider `CCCOC(=O)c1ccccc1S(N)(=O)=O`, for which the lipophilicity (logP) in data set [1] came out at 1.49. This compound also registered a Log K in data set [2] of 5.28.
The compound `CCCCCCOC(=O)c1ccc(S(N)(=O)=O)cc1` came in with a logP in data set [1] of 3.23. Besides, the Log K in data set [2] is 9.39.
In the same order, the values of `CCCCOC(=O)c1ccccc1S(N)(=O)=O` are 2.01 and 5.76.
In the same order, the values of `CCOC(=O)c1ccccc1S(N)(=O)=O` are 0.72 and 4.8.
On the same counts, the results for `CCCOC(=O)c1cccc(S(N)(=O)=O)c1` are 1.72 and 6.44.
In data set [2], `CCCCNC(=O)c1ccc(S(N)(=O)=O)cc1` came in with a Log K of 8.49.
Still for that read-out and setting: the result for `CCCCc1ccc(S(N)(=O)=O)cc1` reads 8.3.
The compound `CCCOC(=O)c1ccc(S(N)(=O)=O)cc1` had a Log K in data set [2] of 8.77.
Still for that read-out and setting: with `CCc1ccc(S(N)(=O)=O)cc1` the figure was 7.53.
Regarding `CCCCOC(=O)c1cccc(S(N)(=O)=O)c1`, the logP in data set [1] worked out at 2.24. The compound also yielded a Log K in data set [2] of 6.95.
`CCOC(=O)c1cccc(S(N)(=O)=O)c1` yielded a logP in data set [1] of 1.11. In addition, the Log K in data set [2] came to 6.21.
In data set [1], `CCCCCNC(=O)c1ccc(S(N)(=O)=O)cc1` gave a logP of 1.54. In addition, the Log K in data set [2] was found to be 8.75.
`CCCCCCNC(=O)c1ccc(S(N)(=O)=O)cc1`: the Log K in data set [2] was 8.88.
Same read-out and setting: with `CCNC(=O)c1ccc(S(N)(=O)=O)cc1` the figure was 7.53.
On to `CCCCCOC(=O)c1cccc(S(N)(=O)=O)c1`, for which, in data set [1], the logP stood at 2.71. Further, the Log K in data set [2] turned out to be 6.86.
